Assays:
[1] = pKa of amine lipid by TNS fluorescence; format: physicochemical; conditions: probe TNS (6-(p-toluidino)-2-naphthalenesulfonic acid sodium salt), unformulated amine lipid in ethanol, sodium phosphate buffers -9.0
Method in brief: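 pKa derived from a sigmoidal fit of normalized TNS fluorescence (321 nm excitation, 448 nm emission) versus pH. Lipid from ethanol stock diluted to about 100 μM final in 0.1 M phosphate buffers, pH 4.5–9.0.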

[2] = LNP average particle size and polydispersity by dynamic light scattering; format: physicochemical; conditions: LNP with the compound as amine lipid
From the text: The LNPs have a size of about 1 to about 1,000 nm, about 10 to about 500 nm, about 20 to about 500 nm, in a sub-embodiment about 50 to about 400 nm, in a sub-embodiment about 50 to about 300 nm, in a sub-embodiment about 50 to about 200 nm, and in a sub-embodiment about 50 to about 150 nm, and in another sub-embodiment about 60 to about 120 nm. Preferably, the LNPs have a size from about 60 nm to about 100 nm. The average sizes (diameters) of the fully formed LNP, may be measured by dynamic light scattering on a Malvern Zetasizer. The LNP sample is diluted in phosphate buffered saline (PBS) so that the count rate is approximately 200-400 kcps. The data is presented as a weighted average of the intensity measure.
In some embodiments, the LNPs have a size of about 75 to about 120 nm. In some embodiments, the LNPs have a size of about 75 to about 100 nm. Unless indicated otherwise, all sizes referred to herein are the average sizes (diameters) of the fully formed nanoparticles, as measured by dynamic light scattering on a Malvern Zetasizer. The nanoparticle sample is diluted in phosphate buffered saline (PBS) so that the count rate is approximately 200-400 kcps. The data is presented as a weighted-average of the intensity measure (Z-average diameter).
Dynamic Light Scattering (“DLS”) is used to characterize the polydispersity index (“pdi”) and size of the LNPs of the present disclosure. DLS measures the scattering of light that results from subjecting a sample to a light source. PDI, as determined from DLS measurements, represents the distribution of particle size (around the mean particle size) in a population, with a perfectly uniform population having a PDI of zero. Electropheretic light scattering is used to characterize the surface charge of the LNP at a specified pH. The surface charge, or the zeta potential, is a measure of the magnitude of electrostatic repulsion/attraction between particles in the LNP suspension. Asymmetric-Flow Field Flow Fractionation—Multi-Angle Light Scattering (AF4-MALS) is used to separate particles in the composition by hydrodynamic radius and then measure the molecular weights, hydrodynamic radii and root mean square radii of the fractionated particles. […] Nanoparticle tracking analysis (NTA, Malvern Nanosight) can be used to determine particle size distribution as well as particle concentration. LNP samples are diluted appropriately and injected onto a microscope slide. A camera records the scattered light as the particles are slowly infused through field of view. After the movie is captured, the Nanoparticle Tracking Analysis processes the movie by tracking pixels and calculating a diffusion coefficient. This diffusion coefficient can be translated into the hydrodynamic radius of the particle. The instrument also counts the number of individual particles counted in the analysis to give particle concentration.
LNP compositions are analyzed for average particle size, polydispersity index (pdi), total RNA content, encapsulation efficiency of RNA, and zeta potential. LNP compositions may be further characterized by lipid analysis, AF4-MALS, NTA, and/or cryo-EM. Average particle size and polydispersity are measured by dynamic light scattering (DLS) using a Malvern Zetasizer DLS instrument. LNP samples were diluted with PBS buffer prior to being measured by DLS. Z-average diameter which is an intensity-based measurement of average particle size was reported along with number average diameter and pdi. A Malvern Zetasizer instrument is also used to measure the zeta potential of the LNP. Samples are diluted 1:17 (50 μL into 800 μL) in 0.1×PBS, pH 7.4 prior to measurement.

[3] = RNA encapsulation efficiency of LNP (Ribogreen fluorescence assay); format: physicochemical; conditions: LNP with the compound as amine lipid
Procedure: A fluorescence-based assay (Ribogreen®, ThermoFisher Scientific) is used to determine total RNA concentration and free RNA. Encapsulation efficiency is calculated as (Total RNA—Free RNA)/Total RNA. LNP samples are diluted appropriately with 1× TE buffer containing 0.2% Triton-X 100 to determine total RNA or 1× TE buffer to determine free RNA. Standard curves are prepared by utilizing the starting RNA solution used to make the compositions and diluted in 1× TE buffer+/−0.2% Triton-X 100. Diluted RiboGreen® dye (according to the manufacturer's instructions) is then added to each of the standards and samples and allowed to incubate for approximately 10 minutes at room temperature, in the absence of light. A SpectraMax M5 Microplate Reader (Molecular Devices) is used to read the samples with excitation, auto cutoff and emission wavelengths set to 488 nm, 515 nm, and 525 nm respectively. Total RNA and free RNA are determined from the appropriate standard curves.
Encapsulation efficiency is calculated as (Total RNA−Free RNA)/Total RNA. The same procedure may be used for determining the encapsulation efficiency of a DNA-based cargo component. For single-strand DNA, Oligreen Dye may be used and for double-strand DNA, Picogreen Dye.

[4] = test system: mouse TTR; assay: Serum TTR ELISA in mice after LNP delivery; format: in vivo; conditions: mouse serum, relative to TSS control of same experiment
Method in brief: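 Mouse TTR in serum was quantified by ELISA (samples diluted e.g. 10,000- and/or 2,500-fold) 6–7 days after dosing CD-1 females with LNP, typically 0.1 mpk. Values are reported relative to vehicle-treated controls (%).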

[5] = Expt. 2, composition ratio (mol %) 50/9/39.5/3 for Cmpnd 49, 50/9/39.5/1.5 for the others
[6] = Expt. 4, composition ratio (mol %) 50/9/38/3 for Cmpnd 49, 50/10/38.5/1.5 for the others
[7] = Expt. 8, composition ratio (mol %) 50/9/38/3 for Cmpnd 49, 50/10/38.5/1.5 for the others
[8] = Expt. 7, composition ratio (mol %) 50/9/38/3 for Cmpnd 49, 50/10/38.5/1.5 for the others
[9] = Expt. 5, composition ratio (mol %) 50/10/38.5/1.5

Row | pKa [1] | Num Ave Size (nm) [2, 9] | PDI [2, 9] | Z-Ave Size (nm) [2, 9] | Encapsulation (%) [3, 9] | SMILES | Serum TTR % TSS ([4]; dose 0.03 mpk) | Serum TTR % TSS ([4]; dose 0.1 mpk) | also measured
1 | 6.32 | – | – | – | – | CCCCC/C=C\C/C=C\CCCCCCCC(=O)OCC(COC(=O)CCCCCCC/C=C\C/C=C\CCCCC)OC(=O)CCC(CCCC)OC(=O)OCCCN1CCCC1 (stereo not drawn) [Compound 68, 2-((4-(((3-(pyrrolidin-1-yl)propoxy)carbonyl)oxy)octanoyl)oxy)propane-1,3-diyl (9Z,9′Z,12Z,12′Z)-bis(octadeca-9,12-dienoate)] | 68.58 % TSS | – | Num Ave Size (nm) [2, 5]: 100.4 nm; PDI [2, 5]: 0.051; Z-Ave Size (nm) [2, 5]: 122.30 nm; Encapsulation (%) [3, 5]: 99%
2 | 6.44 | – | – | – | – | CCCCC/C=C\C/C=C\CCCCCCCC(=O)OCC(COC(=O)CCCCCCC/C=C\C/C=C\CCCCC)OC(=O)CCC(CCCCC)OC(=O)NCCN(C)CC (stereo not drawn) [Compound 69, 2-((4-(((2-(ethyl(methyl)amino)ethyl)carbamoyl)oxy)nonanoyl)oxy)propane-1,3-diyl (9Z,9′Z,12Z,12′Z)-bis(octadeca-9,12-dienoate)] | 54% TSS | 12% TSS | Num Ave Size (nm) [2, 6]: 88.76 nm; PDI [2, 6]: 0.017; Z-Ave Size (nm) [2, 6]: 108.90 nm; Encapsulation (%) [3, 6]: 96%
3 | 6.61 | – | – | – | – | CCCCC/C=C\C/C=C\CCCCCCCC(=O)OCC(COC(=O)CCCCCCC/C=C\C/C=C\CCCCC)OC(=O)CCC(CCCCC)OC(=O)NCC1CCCN1C (stereo not drawn) [Compound 70, 2-((4-((((1-methylpyrrolidin-2-yl)methyl)carbamoyl)oxy)nonanoyl)oxy)propane-1,3-diyl (9Z,9′Z,12Z,12′Z)-bis(octadeca-9,12-dienoate)] | 126.29 % TSS | 87.49 % TSS | Num Ave Size (nm) [2, 7]: 102 nm; PDI [2, 7]: 0.018; Z-Ave Size (nm) [2, 7]: 124.2 nm; Encapsulation (%) [3, 7]: 99%
4 | 6.28 | – | – | – | – | CCCCC/C=C\C/C=C\CCCCCCCC(=O)OCC(COC(=O)CCCCCCC/C=C\C/C=C\CCCCC)OC(=O)CCC(CCCCC)OC(=O)OCCCN1CCCC1 (stereo not drawn) [Compound 71, 2-((4-(((3-(pyrrolidin-1-yl)propoxy)carbonyl)oxy)nonanoyl)oxy)propane-1,3-diyl (9Z,9′Z,12Z,12′Z)-bis(octadeca-9,12-dienoate)] | 47.425 % TSS | 15.055 % TSS | Num Ave Size (nm) [2, 8]: 86.63 nm; PDI [2, 8]: 0.035; Z-Ave Size (nm) [2, 8]: 104.5 nm; Encapsulation (%) [3, 8]: 97%
5 | 6.41 | – | – | – | – | CCCCC/C=C\C/C=C\CCCCCCCC(=O)OCC(COC(=O)CCCCCCC/C=C\C/C=C\CCCCC)OC(=O)CCC(CCCCCCC)OC(=O)NCCN(C)CC (stereo not drawn) [Compound 73, 2-((4-(((2-(ethyl(methyl)amino)ethyl)carbamoyl)oxy)undecanoyl)oxy)propane-1,3-diyl (9Z,9′Z,12Z,12′Z)-bis(octadeca-9,12-dienoate)] | 25% TSS | 4% TSS | Num Ave Size (nm) [2, 6]: 76.59 nm; PDI [2, 6]: 0.029; Z-Ave Size (nm) [2, 6]: 95.81 nm; Encapsulation (%) [3, 6]: 97%
6 | 6.44 | – | – | – | – | CCCCC/C=C\C/C=C\CCCCCCCC(=O)OCC(COC(=O)CCCCCCC/C=C\C/C=C\CCCCC)OC(=O)CCC(CCCCCCC)OC(=O)NCC1CCCN1C (stereo not drawn) [Compound 74, 2-((4-((((1-methylpyrrolidin-2-yl)methyl)carbamoyl)oxy)undecanoyl)oxy)propane-1,3-diyl (9Z,9′Z,12Z,12′Z)-bis(octadeca-9,12-dienoate)] | 100.54 % TSS | 110.06 % TSS | Num Ave Size (nm) [2, 7]: 74.58 nm; PDI [2, 7]: 0.024; Z-Ave Size (nm) [2, 7]: 92.14 nm; Encapsulation (%) [3, 7]: 99%
7 | 6.17 | – | – | – | – | CCCCC/C=C\C/C=C\CCCCCCCC(=O)OCC(COC(=O)CCCCCCC/C=C\C/C=C\CCCCC)OC(=O)CCC(CCCCCCC)OC(=O)OCCCN1CCCC1 (stereo not drawn) [Compound 75, 2-((4-(((3-(pyrrolidin-1-yl)propoxy)carbonyl)oxy)undecanoyl)oxy)propane-1,3-diyl (9Z,9′Z,12Z,12′Z)-bis(octadeca-9,12-dienoate)] | 45.098 % TSS | 11.996 % TSS | Num Ave Size (nm) [2, 8]: 73.46 nm; PDI [2, 8]: 0.02; Z-Ave Size (nm) [2, 8]: 89.78 nm; Encapsulation (%) [3, 8]: 98%
8 | 7.23 | 78 nm | 0.08 | 104.00 nm | 98% | CCCCC/C=C\C/C=C\CCCCCCCC(=O)OCC(COC(=O)CCCCCCC/C=C\C/C=C\CCCCC)OC(=O)CCC(CCCCCC)OC(=O)NCCN1CCC1 (stereo not drawn) [Compound 77, 2-((4-(((2-(azetidin-1-yl)ethyl)carbamoyl)oxy)decanoyl)oxy)propane-1,3-diyl (9Z,9′Z,12Z,12′Z)-bis(octadeca-9,12-dienoate)] | 68.3 % TSS | 80.6 % TSS | –
9 | 5.93 | 59 nm | 0.13 | 91.00 nm | 97% | CCCCC/C=C\C/C=C\CCCCCCCC(=O)OCC(COC(=O)CCCCCCC/C=C\C/C=C\CCCCC)OC(=O)CCC(CCCCCC)OC(=O)NCCN1CCCCC1 (stereo not drawn) [Compound 78, 2-((4-(((2-(piperidin-1-yl)ethyl)carbamoyl)oxy)decanoyl)oxy)propane-1,3-diyl (9Z,9′Z,12Z,12′Z)-bis(octadeca-9,12-dienoate)] | 99.8 % TSS | 66.5 % TSS | –
10 | 4.96 | 55 nm | 0.09 | 75.00 nm | 98% | CCCCC/C=C\C/C=C\CCCCCCCC(=O)OCC(COC(=O)CCCCCCC/C=C\C/C=C\CCCCC)OC(=O)CCC(CCCCCC)OC(=O)NC(C)(C)CN1CCCC1 (stereo not drawn) [Compound 79, 2-((4-(((2-methyl-1-(pyrrolidin-1-yl)propan-2-yl)carbamoyl)oxy)decanoyl)oxy)propane-1,3-diyl (9Z,9′Z,12Z,12′Z)-bis(octadeca-9,12-dienoate)] | 86.9 % TSS | 100.4 % TSS | –

— US12077483B2, “Modified amine lipids” (Intellia Therapeutics, Inc., priority 2018, dated 2024)
